Laboratory results as given in US7179806B2, “Δ1-pyrrolines used as pesticides” (Bayer Cropscience AG, priority 2000, dated 2007).

test: log P determination by HPLC (reversed-phase C18, EEC Directive 79/831 Annex V.A8); assay type: physicochemical; conditions: pH 2.3, 0.1% aqueous phosphoric acid/acetonitrile gradient, 43° C
Source text: Mobile phases for determination in the acidic range: 0.1% aqueous phosphoric acid, acetonitrile; linear gradient from 10% acetonitrile to 90% acetonitrile.

Row | log P (pH 2.3) | SMILES | chromatographic logP
1 | 2.40 | CN(C)c1ncc(-c2ccc(C3CCC(c4c(F)cccc4F)=N3)cc2)cn1 (centres unmarked) [Example 42] | –
2 | – | CC(C)(C)OC(=O)N1CCN(c2ccc(-c3ccc(C4CCC(c5c(F)cccc5F)=N4)cc3)nn2)CC1 (centres unmarked) [Example 51] | 2.07

same assay, conditions: reversed-phase C18 HPLC column, pH 2.3, pH 2.3, 0.1% aqueous phosphoric acid/acetonitrile gradient, 43° C

Row | chromatographic logP | SMILES
3 | 3.57 | CCCN(CC)c1ncc(-c2ccc(C3CCC(c4c(F)cccc4F)=N3)cc2)cn1 (centres unmarked) [Example 1, N-(5-{4-[5-(2,6-difluorophenyl)-3,4-dihydro-2H-pyrrol-2-yl]phenyl}-2-pyrimidinyl)-N-ethyl-N-propylamine]
4 | 3.25 | Fc1cccc(F)c1C1=NC(c2ccc(-c3ccc(C(F)(F)F)cn3)cc2)CC1 (centres unmarked) [Example 2]
5 | 2.88 | Fc1cccc(F)c1C1=NC(c2ccc(-c3cnc(OCC(F)(F)F)nc3)cc2)CC1 (centres unmarked) [Example 3, 5-{4-[5-(2,6-difluorophenyl)-3,4-dihydro-2H-pyrrol-2-yl]phenyl}-2-(2,2,2-trifluorethoxy)pyrimidine]
6 | 1.24 | Fc1cccc(F)c1C1=NC(c2ccc(-c3ccccn3)cc2)CC1 (centres unmarked) [Example 4]
7 | 2.86 | Fc1cccc(F)c1C1=NC(c2ccc(-c3ccc(Cl)cn3)cc2)CC1 (centres unmarked) [Example 5]
8 | 1.74 | N#CCc1ccc(-c2ccc(C3CCC(c4c(F)cccc4F)=N3)cc2)nc1 (centres unmarked) [Example 6]
9 | 2.39 | COC(=O)c1ccc(-c2ccc(C3CCC(c4c(F)cccc4F)=N3)cc2)nc1 (centres unmarked) [Example 7]
10 | 3.89 | CC(C)OC(=O)c1ccc(-c2ccc(C3CCC(c4c(F)cccc4F)=N3)cc2)nc1 (centres unmarked) [Example 8]
11 | 3.28 | CC(C)COC(=O)c1ccc(-c2ccc(C3CCC(c4c(F)cccc4F)=N3)cc2)nc1 (centres unmarked) [Example 9]
12 | 2.02 | CCN(CC)C(=O)c1ccc(-c2ccc(C3CCC(c4c(F)cccc4F)=N3)cc2)nc1 (centres unmarked) [Example 10]
13 | 2.7 | CCCN(CCC)C(=O)c1ccc(-c2ccc(C3CCC(c4c(F)cccc4F)=N3)cc2)nc1 (centres unmarked) [Example 11]
14 | 3.06 | CN(Cc1ccc(-c2ccc(C3CCC(c4c(F)cccc4F)=N3)cc2)nc1)S(=O)(=O)C(F)(F)F (centres unmarked) [Example 13]
15 | 3.48 | CC(C)N(Cc1ccc(-c2ccc(C3CCC(c4c(F)cccc4F)=N3)cc2)nc1)S(=O)(=O)C(F)(F)F (centres unmarked) [Example 14]
16 | 3.39 | O=S(=O)(N(Cc1ccc(-c2ccc(C3CCC(c4c(F)cccc4F)=N3)cc2)nc1)C1CC1)C(F)(F)F (centres unmarked) [Example 15]
17 | 3.21 | COCCN(Cc1ccc(-c2ccc(C3CCC(c4c(F)cccc4F)=N3)cc2)nc1)S(=O)(=O)C(F)(F)F (centres unmarked) [Example 16]
18 | 3.35 | CCN(Cc1ccc(-c2ccc(C3CCC(c4c(F)cccc4F)=N3)cc2)nc1)S(=O)(=O)C(F)(F)F (centres unmarked) [Example 17]
19 | 1.12 | Fc1cccc(F)c1C1=NC(c2ccc(-c3cccnc3)cc2)CC1 (centres unmarked) [Example 18]
20 | 2.58 | Fc1cccc(F)c1C1=NC(c2ccc(-c3ccc(Cl)nc3)cc2)CC1 (centres unmarked) [Example 19]
21 | 3.66 | Fc1cccc(F)c1C1=NC(c2ccc(-c3ccc(OCC(F)(F)F)nc3)cc2)CC1 (centres unmarked) [Example 20]
22 | 1.44 | Fc1cccc(F)c1C1=NC(c2ccc(-c3ccc(N4CCOCC4)nc3)cc2)CC1 (centres unmarked) [Example 21]
23 | 2.63 | CN(c1ccc(-c2ccc(C3CCC(c4c(F)cccc4F)=N3)cc2)nc1)S(=O)(=O)C(F)(F)F (centres unmarked) [Example 23]
24 | 1.45 | Fc1cccc(F)c1C1=NC(c2ccc(-c3ccc(N4CCCC4)nc3)cc2)CC1 (centres unmarked) [Example 24]
25 | 1.79 | Fc1cccc(F)c1C1=NC(c2ccc(-c3ncccn3)cc2)CC1 (centres unmarked) [Example 26]
26 | 1.98 | Fc1cccc(F)c1C1=NC(c2ccc(-c3cnc(Cl)nc3)cc2)CC1 (centres unmarked) [Example 27]
27 | 1.49 | Fc1cccc(F)c1C1=NC(c2ccc(-c3cncnc3)cc2)CC1 (centres unmarked) [Example 28]
28 | 3.62 | CN(C)c1ncc(-c2ccc(C3CCC(c4c(F)cccc4F)=N3)cc2)cn1 (centres unmarked) [Example 29]

Row | chromatographic logP | SMILES
29 | 2.61 | CC(C)Oc1ncc(-c2ccc(C3CCC(c4c(F)cccc4F)=N3)cc2)cn1 (centres unmarked) [Example 30]
30 | 3.49 | CC(C)Sc1ncc(-c2ccc(C3CCC(c4c(F)cccc4F)=N3)cc2)cn1 (centres unmarked) [Example 31]
31 | 2.18 | Fc1cccc(F)c1C1=NC(c2ccc(-c3cnc(N4CCOCC4)nc3)cc2)CC1 (centres unmarked) [Example 32]
32 | 3.22 | CC(C)COc1ncc(-c2ccc(C3CCC(c4c(F)cccc4F)=N3)cc2)cn1 (centres unmarked) [Example 33]
33 | 4.39 | CC1CC(C)CN(c2ncc(-c3ccc(C4CCC(c5c(F)cccc5F)=N4)cc3)cn2)C1 (centres unmarked) [Example 34]
34 | 3.4 | Fc1cccc(F)c1C1=NC(c2ccc(-c3cnc(N4CCCCC4)nc3)cc2)CC1 (centres unmarked) [Example 35]
35 | 2.81 | CC(C)(C)C(=O)N1CCN(c2ncc(-c3ccc(C4CCC(c5c(F)cccc5F)=N4)cc3)cn2)CC1 (centres unmarked) [Example 36]
36 | 3.5 | CN(c1ncc(-c2ccc(C3CCC(c4c(F)cccc4F)=N3)cc2)cn1)S(=O)(=O)C(F)(F)F (centres unmarked) [Example 37]
37 | 3.63 | O=S(=O)(N(c1ncc(-c2ccc(C3CCC(c4c(F)cccc4F)=N3)cc2)cn1)C1CC1)C(F)(F)F (centres unmarked) [Example 38]
38 | 2.11 | Fc1cccc(F)c1C1=NC(c2ccc(-c3cnc(N4CCCC4)nc3)cc2)CC1 (centres unmarked) [Example 41]
39 | 3 | CCN(CC)c1ncc(-c2ccc(C3CCC(c4c(F)cccc4F)=N3)cc2)cn1 (centres unmarked) [Example 43]
40 | 3.77 | Fc1cccc(F)c1C1=NC(c2ccc(-c3ccc(OCC(F)(F)F)nn3)cc2)CC1 (centres unmarked) [Example 45]
41 | 2.5 | CC(C)Oc1ccc(-c2ccc(C3CCC(c4c(F)cccc4F)=N3)cc2)nn1 (centres unmarked) [Example 46]
42 | 2.94 | CC(C)Sc1ccc(-c2ccc(C3CCC(c4c(F)cccc4F)=N3)cc2)nn1 (centres unmarked) [Example 47]
43 | 1.19 | Fc1cccc(F)c1C1=NC(c2ccc(-c3ccc(N4CCOCC4)nn3)cc2)CC1 (centres unmarked) [Example 48]
44 | 1.26 | CCCNc1ccc(-c2ccc(C3CCC(c4c(F)cccc4F)=N3)cc2)nn1 (centres unmarked) [Example 49]
45 | 1.85 | O=C1CCCN1c1ccc(-c2ccc(C3CCC(c4c(F)cccc4F)=N3)cc2)nn1 (centres unmarked) [Example 50]
46 | 1.6 | CCCN(CC)c1ccc(-c2ccc(C3CCC(c4c(F)cccc4F)=N3)cc2)nn1 (centres unmarked) [Example 52]
47 | 1.66 | CN(c1ccc(-c2ccc(C3CCC(c4c(F)cccc4F)=N3)cc2)nn1)S(=O)(=O)C(F)(F)F (centres unmarked) [Example 53]
48 | 2.03 | CC(=O)N(c1ccc(-c2ccc(C3CCC(c4c(F)cccc4F)=N3)cc2)nn1)C(C)C (centres unmarked) [Example 54]
49 | 2.56 | CCCCN(CCCC)c1ccc(-c2ccc(C3CCC(c4c(F)cccc4F)=N3)cc2)nn1 (centres unmarked) [Example 55]
50 | 2.29 | CN(C(=O)C(C)(C)C)c1ccc(-c2ccc(C3CCC(c4c(F)cccc4F)=N3)cc2)nn1 (centres unmarked) [Example 56]
51 | 4.82 | CCCCCCC(=O)N(c1ccc(-c2ccc(C3CCC(c4c(F)cccc4F)=N3)cc2)nn1)C1CCCC1 (centres unmarked) [Example 58]
52 | 4.35 | CCCCCCC(=O)N(c1ccc(-c2ccc(C3CCC(c4c(F)cccc4F)=N3)cc2)nn1)C1CCCCC1 (centres unmarked) [Example 59]
53 | 3.11 | CCCCCCN(C(C)=O)c1ccc(-c2ccc(C3CCC(c4c(F)cccc4F)=N3)cc2)nn1 (centres unmarked) [Example 60]
